# Test system: HBV rcDNA
# Test: HepDE19 assay with bDNA quantitation of HBV rcDNA
# Format: cell-based, hepatitis B virus
# Conditions: HepDE19 assay, inhibition of formation of rcDNA; read-out: DE-19bDNA EC50
# Summary of the method: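 Compounds, top concentration 25 μM in 8-point duplicate series, were applied to Tet-free HepDE19 cultures for 7 days. Branched-DNA quantitation of HBV rcDNA against untreated wells gave EC50 and EC90 by 4-parameter fit. Viability (CC50) came from ATP luminescence on parallel plates incubated 4 days.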
row,Compound,EC50 [µM]
1,"CCN(C(=O)Nc1ccc(F)c(Cl)c1)C(C)c1cnc(OC)c2ccccc12 (single isomer, unassigned) [Compound 22, 3-(3-Chloro-4-fluorophenyl)-1-ethyl-1-(1-(1-methoxyisoquinolin-4-yl)ethyl)urea]",9.6
2,"COc1ncc(C(C)N(CC2CC2)C(=O)Nc2ccc(F)c(Cl)c2)c2ccccc12 (single isomer, unassigned) [Compound 63, 3-(3-Chloro-4-fluorophenyl)-1-(cyclopropylmethyl)-1-(1-(1-methoxyisoquinolin-4-yl)ethyl)urea]",5.8
3,"CNC(=O)CCN(C(=O)Nc1ccc(F)c(Cl)c1)C(C)c1c[nH]c(=O)c2ccccc12 (single isomer, unassigned) [Compound 117, 3-(3-(3-Chloro-4-fluorophenyl)-1-(1-(1-oxo-1,2-dihydroisoquinolin-4-yl)ethyl)ureido)-N-methylpropanamide]",13
4,"CC(C)CN(C(=O)Nc1ccc(F)c(Cl)c1)C(C)c1c[nH]c(=O)c2ccccc12 (single isomer, unassigned) [Compound 143, 3-(3-chloro-4-fluorophenyl)-1-isobutyl-1-(1-(1-oxo-1,2-dihydroisoquinolin-4-yl)ethyl)urea]",0.85
5,"CC(c1c[nH]c(=O)c2ccccc12)N(CCCC#N)C(=O)Nc1ccc(F)c(Cl)c1 (single isomer, unassigned) [Compound 115, 3-(3-Chloro-4-fluorophenyl)-1-(3-cyanopropyl)-1-(1-(1-oxo-1,2-dihydroisoquinolin-4-yl)ethyl)urea]",0.01
6,"CC(c1c[nH]c(=O)c2ccccc12)N(CCS(N)(=O)=O)C(=O)Nc1ccc(F)c(Cl)c1 (single isomer, unassigned) [Compound 120, 2-(3-(3-Chloro-4-fluorophenyl)-1-(1-(1-oxo-1,2-dihydroisoquinolin-4-yl)ethyl)ureido) ethanesulfonamide]",18
7,"CCN(C(=O)Nc1ccc(F)c(Cl)c1)C(c1c[nH]c(=O)c2ccccc12)C(F)(F)F (single isomer, unassigned) [Compound 76, 3-(3-Chloro-4-fluorophenyl)-1-ethyl-1-(2,2,2-trifluoro-1-(1-oxo-1,2-dihydroisoquinolin-4-yl)ethyl)urea]",1.4
8,"CC(c1c[nH]c(=O)c2ccc(F)cc12)N(C)C(=O)Nc1ccc(F)c(Cl)c1 (single isomer, unassigned) [Compound 169, 3-(3-Chloro-4-fluorophenyl)-1-(1-(6-fluoro-1-oxo-1,2-dihydroisoquinolin-4-yl)ethyl)-1-methylurea]",2.1
9,"CC(c1c[nH]c(=O)c2ccccc12)N(CCNCC(F)F)C(=O)Nc1ccc(F)c(Cl)c1 (single isomer, unassigned) [Compound 198, 3-(3-Chloro-4-fluorophenyl)-1-(2-((2,2-difluoroethyl)amino)ethyl)-1-(1-(1-oxo-1,2-dihydroisoquinolin-4-yl)ethyl)urea]",11.9
10,"CC(c1c[nH]c(=O)c2ccccc12)N(CC1COC(C)(C)OC1)C(=O)Nc1ccc(F)c(Cl)c1 (single isomer, unassigned) [Compound 273, 3-(3-Chloro-4-fluorophenyl)-1-((2,2-dimethyl-1,3-dioxan-5-yl)methyl)-1-(1-(1-oxo-1,2-dihydroisoquinolin-4-yl)ethyl)urea]",0.17
11,"CC(NC(=O)Nc1ccc(F)c(Cl)c1)c1c[nH]c(=O)c2ccccc12 (single isomer, unassigned) [Compound 11, 1-(3-Chloro-4-fluorophenyl)-3-(1-(1-oxo-1,2-dihydroisoquinolin-4-yl)ethyl)urea]",4.7

# Same assay, conditions: HepDE19 assay, inhibition of formation of relaxed circular DNA (rcDNA), bDNA quantitation; read-out: DE-19bDNA EC50
row,Compound,EC50 [µM]
1,"CC(c1cnc(C(N)=O)c2ccccc12)N(C)C(=O)Nc1ccc(F)c(Cl)c1 (single isomer, unassigned) [Compound 328, 4-(1-(3-(3-Chloro-4-fluorophenyl)-1-methylureido)ethyl)isoquinoline-1-carboxamide]",4.1
2,"Cc1ncc(C(C)N(C)C(=O)Nc2ccc(F)c(Cl)c2)c2ccccc12 (single isomer, unassigned) [Compound 352, 3-(3-Chloro-4-fluorophenyl)-1-methyl-1-(1-(1-methylisoquinolin-4-yl)ethyl)urea]",9.9
3,"CC(c1c[nH]c(=O)c2ccc(F)cc12)N(CC(CO)CO)C(=O)Nc1ccc(F)c(Cl)c1 (single isomer, unassigned) [Compound 295, 3-(3-Chloro-4-fluorophenyl)-1-(1-(6-fluoro-1-oxo-1,2-dihydroisoquinolin-4-yl)ethyl)-1-(3-hydroxy-2-(hydroxymethyl)propyl)urea]",1.9
4,"CC(c1c[nH]c(=O)c2c(F)c(F)ccc12)N(C)C(=O)Nc1ccc2cc[nH]c2c1 (single isomer, unassigned) [Compound 499, 1-(1-(7,8-Difluoro-1-oxo-1,2-dihydroisoquinolin-4-yl)ethyl)-3-(1H-indol-6-yl)-1-methylurea]",0.3
5,"CC(c1c[nH]c(=O)c2c(F)c(F)ccc12)N(C)C(=O)Nc1ccc(F)c(F)c1 (single isomer, unassigned) [Compound 435, 1-(1-(7,8-Difluoro-1-oxo-1,2-dihydroisoquinolin-4-yl)ethyl)-3-(3,4-difluorophenyl)-1-methylurea]",0.24
6,"CCN(C(=O)Nc1ccc(F)c(F)c1)C(C)c1c[nH]c(=O)c2cc(F)c(F)cc12 (single isomer, unassigned) [Compound 423, 1-(1-(6,7-Difluoro-1-oxo-1,2-dihydroisoquinolin-4-yl)ethyl)-3-(3,4-difluorophenyl)-1-ethylurea]",0.021
7,"CC(c1c[nH]c(=O)c2cc(F)c(F)cc12)N(CCS(N)(=O)=O)C(=O)Nc1ccc(F)c(Cl)c1 (single isomer, unassigned) [Compound 385, 2-(3-(3-Chloro-4-fluorophenyl)-1-(1-(6,7-difluoro-1-oxo-1,2-dihydroisoquinolin-4-yl)ethyl)ureido) ethane-1-sulfonamide]",2.6
8,"CC(c1c[nH]c(=O)c2ccccc12)N(Cc1cscn1)C(=O)Nc1ccc(F)c(Cl)c1 (single isomer, unassigned) [Compound 312, 3-(3-Chloro-4-fluorophenyl)-1-(1-(1-oxo-1,2-dihydroisoquinolin-4-yl)ethyl)-1-(thiazol-4-ylmethyl)urea]",4.6

# Same assay, conditions: Hepatitis B virus, HepDE19, HepDE19 assay, inhibition of formation of rcDNA; read-out: DE-19bDNA EC50
row,Compound,EC50 [µM]
1,"CCN(C(=O)Nc1ccc(F)c(Cl)c1)C(C)c1c[nH]c(=O)c2cnccc12 (racemic) [Compound 102, 3-(3-Chloro-4-fluorophenyl)-1-ethyl-1-(1-(1-oxo-1,2-dihydro-2,7-naphthyridin-4-yl)ethyl)urea]",0.1
2,"CC(=O)NCCN(C(=O)Nc1ccc(F)c(Cl)c1)C(C)c1c[nH]c(=O)c2ccccc12 (racemic) [Compound 100, N-(2-(3-(3-chloro-4-fluorophenyl)-1-(1-(1-oxo-1,2-dihydroisoquinolin-4-yl)ethyl)ureido)ethyl)acetamide]",1

# Same assay, conditions: Hepatitis B virus, HepDE19, HepDE19 assay, inhibition of formation of relaxed circular DNA (rcDNA), bDNA quantitation; read-out: DE-19bDNA EC50
row,Compound,EC50 [µM]
1,"CC(c1c[nH]c(=O)c2c(F)cc(F)cc12)N(CCCO)C(=O)Nc1ccc(F)c(Cl)c1 (stereo not drawn) [Compound 373, 3-(3-Chloro-4-fluorophenyl)-1-(1-(6,8-difluoro-1-oxo-1,2-dihydroisoquinolin-4-yl)ethyl)-1-(3-hydroxypropyl)urea]",2.6
2,"CC(c1c[nH]c(=O)c2cc(F)c(F)cc12)N(C)C(=O)NCc1ccc(F)cc1 (single isomer, unassigned) [Compound 478, 1-(1-(6,7-Difluoro-1-oxo-1,2-dihydroisoquinolin-4-yl)ethyl)-3-(4-fluorobenzyl)-1-methylurea]",1
3,"CC(c1c[nH]c(=O)c2c(F)cc(F)cc12)N(CCCO)C(=O)Nc1ccc(F)c(Cl)c1 (single isomer, unassigned) [Compound 374, 3-(3-Chloro-4-fluorophenyl)-1-(1-(6,8-difluoro-1-oxo-1,2-dihydroisoquinolin-4-yl)ethyl)-1-(3-hydroxypropyl)urea]",0.006
4,"CC(c1c[nH]c(=O)c2ccccc12)N(CC(CO)CO)C(=O)Nc1ccc(F)c(Cl)c1 (single isomer, unassigned) [Compound 284, 3-(3-Chloro-4-fluorophenyl)-1-(3-hydroxy-2-(hydroxymethyl)propyl)-1-(1-(1-oxo-1,2-dihydroisoquinolin-4-yl)ethyl)urea]",0.092

# Same assay, conditions: Hepatitis B virus, HepDE19, read-out: DE-19bDNA EC50 (μM), HepDE19 assay, inhibition of formation of relaxed circular DNA (rcDNA), bDNA quantitation
row,Compound,EC50 [µM]
1,"CC(NC(=O)Nc1ccc(F)c(C#N)c1)c1c[nH]c(=O)c2cc(F)c(F)cc12 (stereo not drawn) [Compound 495, 1-(3-Cyano-4-fluorophenyl)-3-(1-(6,7-difluoro-1-oxo-1,2-dihydroisoquinolin-4-yl)ethyl)urea]",0.33
2,"CC(c1c[nH]c(=O)c2cc(F)c(F)cc12)N(C)C(=O)N[C@@H](C)c1ccccc1 (single isomer, unassigned) [Compound 475]",6.1

# Same assay, conditions: read-out: DE-19bDNA EC50; HepDE19 assay, inhibition of formation of relaxed circular DNA (rcDNA), bDNA quantitation
row,Compound,EC50 [µM]
1,"CC(c1c[nH]c(=O)c2c(F)c(F)ccc12)N(C)C(=O)Nc1ccccc1 (single isomer, unassigned) [Compound 436, 1-(1-(7,8-difluoro-1-oxo-1,2-dihydroisoquinolin-4-yl)ethyl)-1-methyl-3-phenylurea]",19.2
2,"CC(c1c[nH]c(=O)c2cc(F)c(F)cc12)N(C)C(=O)Nc1ccccc1F (single isomer, unassigned) [Compound 420, 1-(1-(6,7-Difluoro-1-oxo-1,2-dihydroisoquinolin-4-yl)ethyl)-3-(2-fluorophenyl)-1-methylurea]",0.74
3,"CC(c1c[nH]c(=O)c2c(F)c(F)ccc12)N(C)C(=O)Nc1cccc(Cl)c1 (single isomer, unassigned) [Compound 460, 3-(3-Chlorophenyl)-1-(1-(7,8-difluoro-1-oxo-1,2-dihydroisoquinolin-4-yl)ethyl)-1-methylurea]",0.61

# — patent US20230045421A1 (priority 2018, published 2023)
